The values that follow come from publication PMC4858680, “A platinum-based hybrid drug design approach to circumvent acquired resistance to molecular targeted tyrosine kinase inhibitors” (Scientific Reports, 2016).

Molecules are shown by their SMILES. Like-named read-outs stand apart in the source and are kept apart here.

Common to all, as to assay type: binding
The target in one experiment is T1, BTK (Homo sapiens, UniProt Q06187).
T1 construct: purchased DiscoveRx KINOMEscan
The following applies: for remaining binding at 10 µM: read-out: Percent control.

The next experiment addresses T2, FGFR4 (Homo sapiens, UniProt P22455).
T2 construct: purchased DiscoveRx KINOMEscan
Particulars: for remaining binding at 10 µM: read-out: Percent control.

Another experiment has as its target T3, FES (Homo sapiens, UniProt P07332).
T3 construct: purchased DiscoveRx KINOMEscan
Particulars: for remaining binding at 10 µM: read-out: Percent control.

Another experiment addresses T4, TXK (Homo sapiens, UniProt P42681).
T4 construct: purchased DiscoveRx (KINOMEscan service)
T4 sequence (P42681 1-527): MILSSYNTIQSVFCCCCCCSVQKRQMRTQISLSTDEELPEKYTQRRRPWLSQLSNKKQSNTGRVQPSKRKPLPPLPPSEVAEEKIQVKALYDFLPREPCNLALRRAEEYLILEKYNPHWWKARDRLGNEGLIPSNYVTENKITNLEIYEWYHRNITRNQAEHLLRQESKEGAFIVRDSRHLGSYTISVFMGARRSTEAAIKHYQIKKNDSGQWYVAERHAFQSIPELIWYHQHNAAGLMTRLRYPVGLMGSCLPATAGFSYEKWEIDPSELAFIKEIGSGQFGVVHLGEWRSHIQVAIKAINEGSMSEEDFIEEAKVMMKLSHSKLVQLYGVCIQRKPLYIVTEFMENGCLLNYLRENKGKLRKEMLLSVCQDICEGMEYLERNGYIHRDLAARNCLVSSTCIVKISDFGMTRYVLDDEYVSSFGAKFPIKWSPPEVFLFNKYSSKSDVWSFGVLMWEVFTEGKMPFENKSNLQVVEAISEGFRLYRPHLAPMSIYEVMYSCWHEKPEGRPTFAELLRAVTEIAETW
Particulars: for remaining binding at 10 µM: read-out: Percent control; for Percent control: 10 μM.

The next experiment deals with T5, ERBB4 (Homo sapiens, UniProt Q15303).
T5 construct: purchased DiscoveRx KINOMEscan
Particulars: for remaining binding at 10 µM: read-out: Percent control.

Another experiment deals with T6, INSRR (Homo sapiens, UniProt P14616).
T6 construct: purchased DiscoveRx KINOMEscan
The following applies: for remaining binding at 10 µM: read-out: Percent control.

The target of another experiment is T7, VEGFR2 (Homo sapiens, UniProt P35968).
T7 construct: purchased DiscoveRx Corporation (KINOMEscan service)
The following applies: for remaining binding at 10 µM: read-out: Percent control; for Percent control: 10 μM.

A further experiment addresses T8, EPHA2 (Homo sapiens, UniProt P29317).
T8 construct: purchased DiscoveRx KINOMEscan
The following applies: for remaining binding at 10 µM: read-out: Percent control.

Experiment [1] deals with T9, TYK2(JH1domain-catalytic) (Homo sapiens, UniProt P29597).
T9 construct: TYK2(JH1domain-catalytic); purchased DiscoveRx (KINOMEscan service)
T9 sequence (P29597 897-1176 limits assumed): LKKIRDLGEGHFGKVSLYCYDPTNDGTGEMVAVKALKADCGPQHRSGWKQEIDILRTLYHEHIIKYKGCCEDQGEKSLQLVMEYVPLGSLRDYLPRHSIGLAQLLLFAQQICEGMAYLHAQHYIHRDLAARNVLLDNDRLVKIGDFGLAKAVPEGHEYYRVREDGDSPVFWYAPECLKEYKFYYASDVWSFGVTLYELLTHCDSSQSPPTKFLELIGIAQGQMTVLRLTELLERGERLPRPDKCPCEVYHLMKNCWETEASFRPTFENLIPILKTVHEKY
Particulars: for remaining binding at 10 µM: read-out: Percent control; for Percent control: 10 μM.

A further experiment deals with T10, EPHA8 (Homo sapiens, UniProt P29322).
T10 construct: purchased DiscoveRx KINOMEscan
T10 sequence (P29322 28-1005): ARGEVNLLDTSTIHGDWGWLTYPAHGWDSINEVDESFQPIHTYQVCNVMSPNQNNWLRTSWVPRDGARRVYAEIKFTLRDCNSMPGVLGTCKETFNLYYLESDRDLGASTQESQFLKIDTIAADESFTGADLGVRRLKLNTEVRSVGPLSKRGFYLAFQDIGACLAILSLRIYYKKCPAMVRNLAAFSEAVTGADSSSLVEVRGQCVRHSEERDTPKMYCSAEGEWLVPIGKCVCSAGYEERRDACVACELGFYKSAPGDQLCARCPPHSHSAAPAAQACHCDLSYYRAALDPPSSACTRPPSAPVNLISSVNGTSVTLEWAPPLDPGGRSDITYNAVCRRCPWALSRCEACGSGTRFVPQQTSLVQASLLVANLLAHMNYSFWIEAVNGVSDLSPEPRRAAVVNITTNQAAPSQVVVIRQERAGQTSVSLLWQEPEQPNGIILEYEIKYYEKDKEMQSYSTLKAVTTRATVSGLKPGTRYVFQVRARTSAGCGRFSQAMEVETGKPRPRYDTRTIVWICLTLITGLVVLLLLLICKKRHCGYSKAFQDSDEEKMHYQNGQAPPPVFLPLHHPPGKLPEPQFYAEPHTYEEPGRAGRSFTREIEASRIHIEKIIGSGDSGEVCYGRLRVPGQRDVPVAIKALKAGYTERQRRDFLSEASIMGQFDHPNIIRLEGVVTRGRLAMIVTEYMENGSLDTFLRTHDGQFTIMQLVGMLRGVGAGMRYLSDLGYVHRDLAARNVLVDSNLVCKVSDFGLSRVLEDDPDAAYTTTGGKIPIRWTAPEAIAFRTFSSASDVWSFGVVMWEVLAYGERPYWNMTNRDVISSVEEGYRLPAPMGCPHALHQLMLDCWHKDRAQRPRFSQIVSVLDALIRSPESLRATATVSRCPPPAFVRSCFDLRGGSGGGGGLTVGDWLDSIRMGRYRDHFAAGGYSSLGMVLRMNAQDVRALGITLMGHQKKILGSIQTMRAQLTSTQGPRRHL
The following applies: for remaining binding at 10 µM: read-out: Percent control.

T1 sequence (Q06187 whole entry): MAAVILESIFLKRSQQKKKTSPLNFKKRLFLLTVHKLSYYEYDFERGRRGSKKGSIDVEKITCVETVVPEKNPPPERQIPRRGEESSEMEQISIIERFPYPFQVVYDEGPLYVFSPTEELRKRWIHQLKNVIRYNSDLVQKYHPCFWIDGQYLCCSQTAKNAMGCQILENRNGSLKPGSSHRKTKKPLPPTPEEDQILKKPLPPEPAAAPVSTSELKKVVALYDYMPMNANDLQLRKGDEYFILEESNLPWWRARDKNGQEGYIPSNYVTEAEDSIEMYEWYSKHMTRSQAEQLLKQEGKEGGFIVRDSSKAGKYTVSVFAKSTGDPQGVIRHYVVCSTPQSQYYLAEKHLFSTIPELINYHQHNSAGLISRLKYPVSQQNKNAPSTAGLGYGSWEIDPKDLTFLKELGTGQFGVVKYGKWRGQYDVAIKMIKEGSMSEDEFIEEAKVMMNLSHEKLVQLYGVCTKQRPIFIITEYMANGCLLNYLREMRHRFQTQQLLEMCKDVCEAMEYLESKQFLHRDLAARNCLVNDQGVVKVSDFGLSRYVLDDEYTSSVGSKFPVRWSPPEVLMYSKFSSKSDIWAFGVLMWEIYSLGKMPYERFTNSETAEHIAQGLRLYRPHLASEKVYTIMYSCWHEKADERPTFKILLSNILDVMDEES
T5 sequence (Q15303 26-1308): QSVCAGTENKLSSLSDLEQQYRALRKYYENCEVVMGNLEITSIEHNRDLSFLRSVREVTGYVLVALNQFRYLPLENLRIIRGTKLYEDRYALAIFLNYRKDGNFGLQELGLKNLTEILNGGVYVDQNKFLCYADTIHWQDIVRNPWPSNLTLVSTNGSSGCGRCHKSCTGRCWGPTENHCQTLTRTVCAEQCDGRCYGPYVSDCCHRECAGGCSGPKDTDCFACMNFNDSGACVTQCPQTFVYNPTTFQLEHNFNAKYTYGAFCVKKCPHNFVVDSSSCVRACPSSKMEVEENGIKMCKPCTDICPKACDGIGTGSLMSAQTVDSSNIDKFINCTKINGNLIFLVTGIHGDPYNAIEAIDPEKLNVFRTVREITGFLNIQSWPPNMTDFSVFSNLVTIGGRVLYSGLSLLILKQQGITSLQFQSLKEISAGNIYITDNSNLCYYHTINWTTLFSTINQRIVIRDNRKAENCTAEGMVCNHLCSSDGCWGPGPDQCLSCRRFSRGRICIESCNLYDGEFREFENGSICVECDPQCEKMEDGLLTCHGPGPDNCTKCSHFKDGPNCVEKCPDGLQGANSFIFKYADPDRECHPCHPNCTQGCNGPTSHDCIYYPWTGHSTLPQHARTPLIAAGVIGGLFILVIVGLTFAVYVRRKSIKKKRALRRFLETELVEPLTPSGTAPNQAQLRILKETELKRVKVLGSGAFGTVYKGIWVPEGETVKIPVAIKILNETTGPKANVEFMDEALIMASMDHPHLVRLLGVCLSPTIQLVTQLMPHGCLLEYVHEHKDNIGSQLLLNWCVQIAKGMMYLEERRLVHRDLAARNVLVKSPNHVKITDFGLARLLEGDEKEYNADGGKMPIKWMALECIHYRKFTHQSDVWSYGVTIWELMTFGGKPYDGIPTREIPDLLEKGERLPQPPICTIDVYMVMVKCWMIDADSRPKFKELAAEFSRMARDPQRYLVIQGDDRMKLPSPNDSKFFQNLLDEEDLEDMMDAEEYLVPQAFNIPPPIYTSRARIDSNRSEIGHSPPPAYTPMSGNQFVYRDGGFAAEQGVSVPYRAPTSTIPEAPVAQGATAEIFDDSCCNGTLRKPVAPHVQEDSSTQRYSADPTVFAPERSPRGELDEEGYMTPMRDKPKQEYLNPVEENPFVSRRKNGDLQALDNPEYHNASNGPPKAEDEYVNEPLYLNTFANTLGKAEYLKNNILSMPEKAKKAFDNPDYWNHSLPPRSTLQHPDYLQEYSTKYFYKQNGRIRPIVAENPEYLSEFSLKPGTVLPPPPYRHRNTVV
T6 sequence (P14616 27-1297): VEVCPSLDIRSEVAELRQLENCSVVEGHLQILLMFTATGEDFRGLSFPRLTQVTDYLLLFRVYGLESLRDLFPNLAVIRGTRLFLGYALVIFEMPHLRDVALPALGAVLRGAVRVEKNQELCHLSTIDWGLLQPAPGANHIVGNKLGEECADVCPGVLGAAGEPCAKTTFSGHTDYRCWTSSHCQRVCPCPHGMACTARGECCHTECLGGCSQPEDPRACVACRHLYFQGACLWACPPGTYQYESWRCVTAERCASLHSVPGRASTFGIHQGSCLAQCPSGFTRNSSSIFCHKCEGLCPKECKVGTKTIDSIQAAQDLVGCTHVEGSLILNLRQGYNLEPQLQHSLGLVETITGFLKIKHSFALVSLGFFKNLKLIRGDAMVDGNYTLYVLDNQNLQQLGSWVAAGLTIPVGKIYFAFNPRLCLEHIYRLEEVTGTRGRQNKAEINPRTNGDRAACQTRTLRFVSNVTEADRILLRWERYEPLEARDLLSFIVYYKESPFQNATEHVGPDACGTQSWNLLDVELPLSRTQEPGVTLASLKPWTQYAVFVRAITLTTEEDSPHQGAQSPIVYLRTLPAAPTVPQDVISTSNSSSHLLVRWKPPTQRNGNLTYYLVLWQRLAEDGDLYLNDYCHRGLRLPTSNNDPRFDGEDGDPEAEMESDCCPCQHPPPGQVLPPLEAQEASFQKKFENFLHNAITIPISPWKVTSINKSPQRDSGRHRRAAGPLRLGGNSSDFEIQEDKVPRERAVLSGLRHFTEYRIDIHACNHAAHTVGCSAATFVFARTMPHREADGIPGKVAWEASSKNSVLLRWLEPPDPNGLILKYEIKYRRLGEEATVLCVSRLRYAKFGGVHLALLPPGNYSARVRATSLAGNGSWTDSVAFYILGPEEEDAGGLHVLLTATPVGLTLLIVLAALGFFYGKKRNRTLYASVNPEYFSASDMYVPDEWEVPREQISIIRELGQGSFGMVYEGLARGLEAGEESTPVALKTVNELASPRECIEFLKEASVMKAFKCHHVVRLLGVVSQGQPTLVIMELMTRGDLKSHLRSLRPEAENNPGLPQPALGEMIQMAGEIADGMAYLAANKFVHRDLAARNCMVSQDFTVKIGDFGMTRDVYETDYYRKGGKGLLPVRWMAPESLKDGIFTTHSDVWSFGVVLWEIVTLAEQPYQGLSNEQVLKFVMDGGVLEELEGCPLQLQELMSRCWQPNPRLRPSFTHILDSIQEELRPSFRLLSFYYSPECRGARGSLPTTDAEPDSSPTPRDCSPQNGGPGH
T3 sequence (P07332 whole entry): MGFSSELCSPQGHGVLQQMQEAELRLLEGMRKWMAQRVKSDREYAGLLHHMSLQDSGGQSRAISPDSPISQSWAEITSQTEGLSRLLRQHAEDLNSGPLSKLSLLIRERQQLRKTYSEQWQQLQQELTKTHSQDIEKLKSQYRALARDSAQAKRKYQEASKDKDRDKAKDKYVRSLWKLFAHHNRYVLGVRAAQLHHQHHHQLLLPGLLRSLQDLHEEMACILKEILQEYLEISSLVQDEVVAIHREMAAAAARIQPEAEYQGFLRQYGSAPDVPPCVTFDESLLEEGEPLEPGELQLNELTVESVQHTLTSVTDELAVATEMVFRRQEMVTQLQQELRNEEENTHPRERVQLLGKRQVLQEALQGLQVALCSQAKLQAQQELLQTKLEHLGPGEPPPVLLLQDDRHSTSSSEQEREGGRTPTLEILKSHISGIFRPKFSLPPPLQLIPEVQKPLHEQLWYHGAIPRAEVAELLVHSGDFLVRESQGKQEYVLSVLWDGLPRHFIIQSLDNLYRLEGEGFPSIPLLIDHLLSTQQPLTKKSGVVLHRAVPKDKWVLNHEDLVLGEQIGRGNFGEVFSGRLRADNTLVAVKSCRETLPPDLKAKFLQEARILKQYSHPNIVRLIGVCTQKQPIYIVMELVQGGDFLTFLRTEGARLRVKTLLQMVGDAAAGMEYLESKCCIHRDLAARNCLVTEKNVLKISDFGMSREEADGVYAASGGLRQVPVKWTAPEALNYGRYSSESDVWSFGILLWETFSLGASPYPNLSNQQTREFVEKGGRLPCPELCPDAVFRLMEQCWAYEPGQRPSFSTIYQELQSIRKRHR
T2 sequence (P22455 22-802): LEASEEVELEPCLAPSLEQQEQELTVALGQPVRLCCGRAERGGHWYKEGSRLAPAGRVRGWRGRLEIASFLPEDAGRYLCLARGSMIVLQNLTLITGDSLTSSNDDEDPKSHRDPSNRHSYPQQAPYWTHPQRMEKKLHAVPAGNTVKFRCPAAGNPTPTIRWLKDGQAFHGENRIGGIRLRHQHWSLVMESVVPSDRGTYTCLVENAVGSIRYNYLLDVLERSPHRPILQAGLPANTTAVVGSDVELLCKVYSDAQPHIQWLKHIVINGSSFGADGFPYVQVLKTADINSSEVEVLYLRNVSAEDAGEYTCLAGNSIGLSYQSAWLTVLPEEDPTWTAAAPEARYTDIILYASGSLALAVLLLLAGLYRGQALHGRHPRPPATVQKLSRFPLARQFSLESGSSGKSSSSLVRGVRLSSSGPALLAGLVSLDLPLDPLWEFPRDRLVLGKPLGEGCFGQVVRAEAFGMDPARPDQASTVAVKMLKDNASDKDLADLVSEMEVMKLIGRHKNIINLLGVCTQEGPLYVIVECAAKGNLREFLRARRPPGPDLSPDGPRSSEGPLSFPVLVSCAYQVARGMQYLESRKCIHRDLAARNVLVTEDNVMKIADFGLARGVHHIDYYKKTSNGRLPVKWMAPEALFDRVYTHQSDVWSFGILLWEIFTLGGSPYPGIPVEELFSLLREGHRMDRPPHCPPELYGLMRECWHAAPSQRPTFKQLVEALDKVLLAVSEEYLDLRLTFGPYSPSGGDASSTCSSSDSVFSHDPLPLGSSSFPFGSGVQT

For the compound `C#Cc1cccc(Nc2ncnc3cc(OCCOC)c(OCCOC)cc23)c1` [Erlotinib], the remaining binding at 10 µM turned out to be 100% at BTK; 100% on FGFR4; 100% on FES; 27.5% at TXK; 2.2% at ERBB4; 100% on INSRR. For the same compound, the remaining binding at 10 µM at VEGFR2 is 36.3%; at EPHA2, 100%; in [1], 100%; on EPHA8, 8.6%.

With `Cc1ccc(NC(=O)c2ccc(CN3CCN(C)CC3)cc2)cc1Nc1nccc(-c2cccnc2)[n+]1[Pt-2]1([Cl])[NH2+]C2CCCCC2[NH2+]1` (stereo not drawn) [1b, oxaliplatin-imatinib], the Percent control on BTK (BTK, 10 μM) was found to be 100%; on FGFR4 (FGFR4, 10 μM), 94%; at FES (FES, 10 μM), 96%; at TXK, 87%; on ERBB4 (ERBB4, 10 μM), 93%; at INSRR (INSRR, 10 μM), 100%. Also, the Percent control was determined as 100% on VEGFR2; 99% at EPHA2 (EPHA2, 10 μM); 94% in experiment [1]; 68% on EPHA8 (EPHA8, 10 μM).

With `COc1cc2c(Nc3ccc(Br)cc3F)ncnc2cc1OCC1CCN(C)CC1` [Vandetanib, reference compound], the remaining binding at 10 µM was 14.5% on BTK (BTK, 10 μM); 18.7% at FGFR4 (FGFR4, 10 μM); 100% on FES (FES, 10 μM); 27% on TXK; 4.5% on ERBB4 (ERBB4, 10 μM); 100% at INSRR (INSRR, 10 μM). Besides, the remaining binding at 10 µM was determined as 7.6% on VEGFR2; 9.9% on EPHA2 (EPHA2, 10 μM); 100% in experiment [1]; 0.9% on EPHA8 (EPHA8, 10 μM).

In the case of `COc1cc2c(Nc3ccc(Br)cc3F)[n+]([Pt-2]3([Cl])[NH2+]C4CCCCC4[NH2+]3)cnc2cc1OCC1CCN(C)CC1` (stereo not drawn) [3b, oxaliplatin-vandetanib], the Percent control at BTK (BTK, 10 μM) came out at 37%; on FGFR4 (FGFR4, 10 μM), 97%; on FES (FES, 10 μM), 100%; at TXK, 56%; at ERBB4 (ERBB4, 10 μM), 56%; at INSRR (INSRR, 10 μM) it was 100%. The Percent control at VEGFR2 was 3.2%; at EPHA2 (EPHA2, 10 μM) it was 43%; in [1] it was 83%; on EPHA8 (EPHA8, 10 μM) it was 6.8%.

Turning to `C#Cc1cccc(Nc2c3cc(OCCOC)c(OCCOC)cc3nc[n+]2[Pt@SP2-2]([NH3+])([NH3+])[Cl])c1` [2a, cisplatin-erlotinib], the Percent control is 87% at BTK (BTK, 10 μM); 99% at FGFR4 (FGFR4, 10 μM); 98% on FES (FES, 10 μM); 76% on TXK; 47% at ERBB4 (ERBB4, 10 μM); 100% on INSRR (INSRR, 10 μM). Further, the Percent control on VEGFR2 amounted to 98%; on EPHA2 (EPHA2, 10 μM), 93%; in [1] it was 92%; at EPHA8 (EPHA8, 10 μM), 56%.

With `Cc1ccc(NC(=O)c2ccc(CN3CCN(C)CC3)cc2)cc1Nc1nccc(-c2cccnc2)n1` [Imatinib, reference compound], the remaining binding at 10 µM at BTK (BTK, 10 μM) turned out to be 100%; in [1] it was 100%. Further, the Percent control at FGFR4 (FGFR4, 10 μM) is reported as 100%; at FES (FES, 10 μM) it was 100%; on TXK it was 100%; at ERBB4 (ERBB4, 10 μM), 100%; at INSRR (INSRR, 10 μM), 100%; on VEGFR2, 100%. The Percent control on EPHA2 (EPHA2, 10 μM) came out at 100%; at EPHA8 (EPHA8, 10 μM) it was 12.3%.
